Reference: ChEMBL document CHEMBL1154470, “Synthesis and antimicrobial activities of a new series of 4-S-[4(1)-amino-5(1)-oxo-6(1)-substituted benzyl-4(1),5(1)-dihydro-1(1),2(1),4(1)-triazin-3-yl]mercaptoacetyl-3-arylsydnones” (2008)
Converted amounts (≈) assume the structure as drawn.

Key:
Type in all cases: functional
[1] = system: Staphylococcus aureus; experiment: Antibacterial activity against Staphylococcus aureus ATCC 25923 by serial dilution method
[2] = system: Pseudomonas aeruginosa; experiment: Antibacterial activity against Pseudomonas aeruginosa ATCC 27853 by serial dilution method
[3] = system: Escherichia coli; experiment: Antibacterial activity against Escherichia coli ATCC 25922 by serial dilution method
[4] = system: Bacillus subtilis; experiment: Antibacterial activity against Bacillus subtilis by serial dilution method
[5] = system: Candida albicans; experiment: Antifungal activity against Candida albicans NCIM No. 3100 by serial dilution method

Work on `COc1ccc(-[n+]2noc([O-])c2C(=O)CSc2nnc(Cc3ccccc3)c(=O)n2N)cc1` yielded an MIC [1] of 0.25 µg/mL (≈ 0.536 µM), an MIC [2] of 0.25 µg/mL (≈ 0.536 µM) and an MIC [3] of 0.25 µg/mL (≈ 0.536 µM). It also gave an MIC [4] of 0.25 µg/mL (≈ 0.536 µM) and an MIC [5] of 0.25 µg/mL (≈ 0.536 µM).
`Cc1ccc(-[n+]2noc([O-])c2C(=O)CSc2nnc(Cc3ccccc3)c(=O)n2N)cc1` was tested, and the MIC [1] was 0.25 µg/mL (≈ 0.555 µM), the MIC [2] was 0.25 µg/mL (≈ 0.555 µM) and the MIC [3] was 0.25 µg/mL (≈ 0.555 µM). For the same compound, the MIC [4] was 0.25 µg/mL (≈ 0.555 µM) and the MIC [5] was 0.25 µg/mL (≈ 0.555 µM).
In the case of `Cc1ccc(-[n+]2noc([O-])c2C(=O)CSc2nnc(Cc3ccc(Br)cc3)c(=O)n2N)cc1`, the MIC [1] is reported as 0.25 µg/mL (≈ 0.472 µM), the MIC [2] is reported as 0.25 µg/mL (≈ 0.472 µM) and the MIC [3] is reported as 0.25 µg/mL (≈ 0.472 µM). It also gave an MIC [4] of 0.25 µg/mL (≈ 0.472 µM) and an MIC [5] of 0.25 µg/mL (≈ 0.472 µM).
`Cc1ccc(-[n+]2noc([O-])c2C(=O)CSc2nnc(Cc3ccc(Cl)cc3)c(=O)n2N)cc1` showed an MIC [1] of 0.25 µg/mL (≈ 0.516 µM), an MIC [2] of 0.25 µg/mL (≈ 0.516 µM) and an MIC [3] of 0.25 µg/mL (≈ 0.516 µM). It also gave an MIC [4] of 0.25 µg/mL (≈ 0.516 µM) and an MIC [5] of 0.25 µg/mL (≈ 0.516 µM).
Compound `Nn1c(SCC(=O)c2c([O-])on[n+]2-c2ccccc2)nnc(Cc2ccc(Br)cc2)c1=O` has an MIC [1] of 0.25 µg/mL (≈ 0.485 µM), an MIC [2] of 0.25 µg/mL (≈ 0.485 µM) and an MIC [3] of 0.25 µg/mL (≈ 0.485 µM). It also gave an MIC [4] of 0.25 µg/mL (≈ 0.485 µM) and an MIC [5] of 0.25 µg/mL (≈ 0.485 µM).
With `Nn1c(SCC(=O)c2c([O-])on[n+]2-c2ccccc2)nnc(Cc2ccc3c(c2)OCO3)c1=O` the MIC [1] was 0.25 µg/mL (≈ 0.52 µM), the MIC [2] was 0.25 µg/mL (≈ 0.52 µM) and the MIC [3] was 0.25 µg/mL (≈ 0.52 µM). It also gave an MIC [4] of 0.25 µg/mL (≈ 0.52 µM) and an MIC [5] of 0.25 µg/mL (≈ 0.52 µM).
For `Nn1c(SCC(=O)c2c([O-])on[n+]2-c2ccccc2)nnc(Cc2ccc(Cl)cc2)c1=O`, the MIC [1] was 0.25 µg/mL (≈ 0.531 µM), the MIC [2] was 0.25 µg/mL (≈ 0.531 µM) and the MIC [3] was 0.25 µg/mL (≈ 0.531 µM). For the same compound, the MIC [4] was 0.25 µg/mL (≈ 0.531 µM) and the MIC [5] was 0.25 µg/mL (≈ 0.531 µM).
Compound `COc1ccc(-[n+]2noc([O-])c2C(=O)CSc2nnc(Cc3ccc(Br)cc3)c(=O)n2N)cc1` has an MIC [1] of 0.25 µg/mL (≈ 0.458 µM), an MIC [2] of 0.25 µg/mL (≈ 0.458 µM) and an MIC [3] of 0.25 µg/mL (≈ 0.458 µM). The MIC [4] was 0.25 µg/mL (≈ 0.458 µM) and the MIC [5] was 0.25 µg/mL (≈ 0.458 µM).
Work on `Cc1ccc(-[n+]2noc([O-])c2C(=O)CSc2nnc(Cc3ccc4c(c3)OCO4)c(=O)n2N)cc1` yielded an MIC [1] of 0.25 µg/mL (≈ 0.506 µM), an MIC [2] of 0.25 µg/mL (≈ 0.506 µM) and an MIC [3] of 0.25 µg/mL (≈ 0.506 µM). For the same compound, the MIC [4] was 0.25 µg/mL (≈ 0.506 µM) and the MIC [5] was 0.25 µg/mL (≈ 0.506 µM).
In the case of `COc1ccc(-[n+]2noc([O-])c2C(=O)CSc2nnc(Cc3ccc(Cl)cc3)c(=O)n2N)cc1`, the MIC [1] is reported as 0.25 µg/mL (≈ 0.499 µM), the MIC [2] is reported as 0.25 µg/mL (≈ 0.499 µM) and the MIC [3] is reported as 0.25 µg/mL (≈ 0.499 µM). It also gave an MIC [4] of 0.25 µg/mL (≈ 0.499 µM) and an MIC [5] of 0.25 µg/mL (≈ 0.499 µM).
Work on `Nn1c(SCC(=O)c2c([O-])on[n+]2-c2ccccc2)nnc(Cc2ccccc2)c1=O` yielded an MIC [1] of 0.25 µg/mL (≈ 0.573 µM), an MIC [2] of 0.25 µg/mL (≈ 0.573 µM) and an MIC [3] of 0.25 µg/mL (≈ 0.573 µM). The MIC [4] was 0.25 µg/mL (≈ 0.573 µM) and the MIC [5] was 0.25 µg/mL (≈ 0.573 µM).
`Nn1c(SCC(=O)c2c([O-])on[n+]2-c2ccccc2)nnc(Cc2ccc([N+](=O)[O-])cc2)c1=O` showed an MIC [1] of 0.5 µg/mL (≈ 1.04 µM), an MIC [2] of 0.25 µg/mL (≈ 0.519 µM) and an MIC [3] of 0.25 µg/mL (≈ 0.519 µM). It also gave an MIC [4] of 0.25 µg/mL (≈ 0.519 µM) and an MIC [5] of 0.25 µg/mL (≈ 0.519 µM).
`OC(Cn1cncn1)(Cn1cncn1)c1ccc(F)cc1F` [FLUCONAZOLE] was tested, and the MIC [5] was 0.25 µg/mL (≈ 0.816 µM).
With `NC(=O)N/N=C/c1ccc([N+](=O)[O-])o1` [NITROFURAZONE] the MIC [1] was 0.5 µg/mL (≈ 2.52 µM), the MIC [2] was 0.5 µg/mL (≈ 2.52 µM) and the MIC [3] was 0.25 µg/mL (≈ 1.26 µM). For the same compound, the MIC [4] was 0.5 µg/mL (≈ 2.52 µM).
